Assay results from US5376679A, “Bicyclic or tricyclic biocidal compounds” (Shell Internationale Research Maatschappij B.V., priority 1988, dated 1994).
Converted amounts (≈) assume the structure as drawn.

Legend:
Type in all cases: in vivo
Alternaria Solani = assay: Direct protectant activity against tomato early blight (As); parameters: As: activity against tomato early blight: scale not given here; conditions: for As: activity against tomato early blight: foliar spray as under (a), 8 days, activity grade 1 or 2, not defined; on As: activity against tomato early blight: dose 1000 g/ha
Plasmopara viticola [1] = assay: Translaminar protectant test, vine downy mildew (Pvt); conditions: secondary screening
Excerpt: The fungicidal activity of certain of the compounds was investigated further, in secondary screening.

Botrytis cinerea = assay: Direct protectant activity against vine grey mould (Bcp); conditions: for Bcp: direct protectant activity against vine grey mould: foliar spray, 1 kg/ha, activity grade 1 or 2, not defined
Excerpt: (b) Direct Protectant Activity Against Vine Grey Mould (Botrytis cinerea; Bcp) The test is a direct protectant one using a foliar spray and is effected as described under (a), with the difference that the leaves are inoculated by spraying with an aqueous solution containing 10^5 conidia/ml.

Plasmopara viticola [2] = assay: Direct protectant activity against vine downy mildew (Pvp); parameters: Pvp: direct protectant activity against vine downy mildew: scale not given here; conditions: foliar spray, 1 kg/ha; activity grade 1 or 2, not defined
Method in brief: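 Lower leaf surfaces of whole vine plants (cv Cabernet Sauvignon) were sprayed at 1 kg/ha in water/acetone with surfactant, then inoculated 24 h later with 10^4 zoosporangia/ml. Scored as % leaf area with sporulation versus control leaves.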

Puccinia Recondita = assay: Direct protectant activity against wheat brown rust (Pr); parameters: scale not given here; conditions: foliar spray, 1 kg/ha, 10 days; activity grade 1 or 2, not defined
Method: (i) Activity Against Wheat Brown Rust (Puccinia Recondita; Pr) The test is a direct protectant one using a foliar spray. […] The plants are then sprayed with the test compound at a dosage of 1 kg/ha using a track sprayer as described under (a). Test compounds are applied as solutions or suspensions in a mixture of acetone and water (50:50 v/v) containing 0.04% surfactant ("TWEEN 20"--Trade Mark). 18-24 hours after treatment, the seedlings are inoculated by spraying the plants from all sides with an aqueous spore suspension containing about 10^5 spores/ml. For 18 hours after inoculation, the plants are kept in high humidity conditions at a temperature of 20°-22° C. Thereafter, the plants are kept in ambient glasshouse conditions, that is, in moderate relative humidity and at a temperature of 20° C. The disease is assessed 10 days after inoculation on the basis of the percentage of the plant covered by sporulating pustules compared with that on the control plants.

Leptosphaeria nodorum = assay: Direct antisporulant activity against wheat leafspot (Ln); parameters: scale not given here; conditions: foliar spray, 1 kg/ha; activity grade 1 or 2, not defined
Method in brief: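 Single-leaf wheat plants were spray-inoculated with 8×10^5 spores/ml and held 24 h at high humidity before foliar spray treatment. Plants were then kept 5 days in the glasshouse. Read-out is the percentage of leaf area sporulating, relative to untreated controls.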

[3] = system: Erysiphe graminis f.sp. hordei; assay: Direct antisporulant activity against barley powdery mildew (Eg); parameters: scale not given here; conditions: foliar spray, 1 kg/ha; activity grade 1 or 2, not defined
Method in brief: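 Barley seedlings (cv. Golden Promise) were dusted with conidia one day before a foliar spray of compound. Plants were then held at ambient glasshouse conditions for up to 7 days. Sporulating leaf area (%) was scored against untreated control plants.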

Plasmopara viticola [4] = assay: Antisporulant activity against vine downy mildew (Pva); conditions: foliar spray, 1 kg/ha; activity grade 1 or 2, not defined
Method: (j) Antisporulant Activity Against Vine Downy Mildew (Plasmopara viticola; Pva)
The test is a direct antisporulant one using a foliar spray. The lower surfaces of leaves of whole vine plants (cv Cabernet Sauvignon) are inoculated by spraying with an aqueous suspension containing 10^4 zoosporangia/ml 2 days prior to treatment with the test compound. The inoculated plants are kept for 24 hours in a high humidity compartment, and then 24 hours at glasshouse ambient temperature and humidity. When the plants are dry, infected leaves are sprayed on their lower surfaces with a solution of active material in 1:1 water/acetone containing 0.04% w/w "Triton X-155" (trade mark) (an octylphenol polyethoxylate surfactant). The spraying is carried out with a moving track sprayer with delivers 620 liter/ha, and the concentration of active material is calculated to give an application rate of 1 kg/ha. After spraying, the plants are returned to normal glasshouse conditions for 96 hours and are then transferred to the high humidity compartment for 24 hours to induce sporulation, prior to assessment. Assessment is visual and is based on the percentage of the leaf area covered by sporulation compared with that on control leaves.

[5] = system: rice root nematode Meloidogyne graminicola; assay: Nematicidal soil drench test (root knots in grain sorghum); conditions: knots in roots of grain sorghum S. bicolor
Method: (§1) The nematicidal activity of the compounds of Example 17 and 23 was investigated. They were tested against the rice root nematode Meloidogyne graminicola in a water screen whereby the effect of retaining the nematodes in a dilute aqueous solution of the compounds was studied, and in a soil drench test in which the propensity of these nematodes to cause knots in the roots of grain sorghum S. bicolor was studied as a function of concentration of the compounds applied to the soil. […] Thus in the water screen test it was determined that the minimum inhibitory concentration of the compound of Example 23 was 0.53 ppm.

[6] = system: rice root nematode Meloidogyne graminicola; assay: Nematicidal water screen; conditions: for activity against the nematodes, water screen: nematodes retained in dilute aqueous solution
Method: as §1

Row | SMILES | As: activity against tomato early blight (Alternaria Solani) | Pvp: direct protectant activity against vine downy mildew (Plasmopara viticola [2]) | Pr: activity against wheat brown rust (Puccinia Recondita) | Ln: activity against wheat leafspot (Leptosphaeria nodorum) | Eg: activity against barley powdery mildew [3] | Other: Pva, antisporulant activity against vine downy mildew (Plasmopara viticola [4]) | other results
1 | N#CN=[N+]([O-])c1ccc2oc(=O)ccc2c1 [Example 1] | 2 | 2 | 2 | 1 |  |  | activity against As (Alternaria Solani; secondary screening): high activity; activity against Pvt (Plasmopara viticola [1]): high activity; Bcp: direct protectant activity against vine grey mould (Botrytis cinerea): 1
2 | CC1(C)Cc2cc(Cl)cc([N+]([O-])=NC#N)c2O1 [Example 4] |  | 2 | 2 | 1 |  |  | 
3 | CC1Oc2c(cc(Cl)cc2[N+]([O-])=NC#N)C1C (stereo not shown) [Example 5] |  | 2 | 2 | 1 | 1 | 2 | 
4 | CC1Cc2cc(Cl)cc([N+]([O-])=NC#N)c2O1 (stereo not shown) [Example 6] | 1 | 2 | 2 | 1 |  |  | 
5 | CC1Oc2c(cccc2[N+]([O-])=NC#N)C1C (stereo not shown) [Example 9] |  |  |  | 1 | 1 | 1 | 
6 | N#CN=[N+]([O-])c1cc(Cl)cc2c1OC(CCl)C2 (stereo not shown) [Example 10] |  | 2 | 2 | 1 |  |  | 
7 | N#CN=[N+]([O-])c1cc(Cl)cc2c1OC(CO)C2 (stereo not shown) [Example 11] |  | 2 | 1 |  |  |  | 
8 | Cc1cc2cccc([N+]([O-])=NC#N)c2o1 [Example 16] | 2 | 2 | 1 |  |  |  | activity against Pvt (Plasmopara viticola [1]): high activity; Bcp: direct protectant activity against vine grey mould (Botrytis cinerea): 2; activity against Bcp (Botrytis cinerea; secondary screening): high activity
9 | N#CN=[N+]([O-])c1cccc2c3c(oc12)CCCC3 [Example 17] | 1 | 2 | 1 | 1 |  |  | activity against the nematodes, soil drench test [5]: activity against the nematodes; activity against the nematodes, water screen [6]: activity against the nematodes
10 | Cc1oc2c([N+]([O-])=NC#N)cccc2c1C [Example 18] | 2 | 2 | 2 |  | 1 |  | 
11 | Cc1cc2cc([N+]([O-])=NC#N)ccc2o1 [Example 23] | 1 |  | 2 |  | 1 | 2 | activity against the nematodes, soil drench test [5]: activity against the nematodes; MIC ([6]; Meloidogyne graminicola, water screen, read-out: minimum inhibitory concentration, water screen): 0.53 µg/mL (≈ 2.63 µM); activity against the nematodes, water screen [6]: activity against the nematodes
12 | N#CN=[N+]([O-])c1cc(Cl)cc2c1OCC=C2 [Example 26] |  | 2 | 1 |  | 2 | 2 | activity against Pvt (Plasmopara viticola [1]): high activity; Bcp: direct protectant activity against vine grey mould (Botrytis cinerea): 2
13 | CC1(C)C=Cc2cc(F)cc([N+]([O-])=NC#N)c2O1 [Example 29] |  |  |  |  | 1 | 2 | 
